The values that follow come from ChEMBL document CHEMBL4229511, “Synthesis and biological activity investigation of azole and quinone hybridized phosphonates” (Bioorg Med Chem Lett, 2018).

Series [1] relates to HeLa. Description: Cytotoxicity against human HeLa cells after 24 hrs by MTT assay. Type of series: cell-based.
For a further series, the system named is Rhodotorula mucilaginosa. Nature of the series: Antifungal activity against Rhodotorula pilimanae by CLSI […] protocol based method. Type of series: functional.
Another series has as its system Escherichia coli. Nature of the series: Antibacterial activity against Escherichia coli ATCC 25922 after 18 hrs. The class given is functional. Particulars: ATCC 25922, 18 h.
The subject of series [2] is Staphylococcus aureus. Nature of the series: Antibacterial activity against Staphylococcus aureus ATCC 33591 after 18 hrs. Type of series: functional. Particulars: ATCC 33591, 18 h.
Series [3] relates to Staphylococcus aureus. Description: Antibacterial activity against Staphylococcus aureus ATCC 25923 after 18 hrs. Type of series: functional. Particulars: ATCC 25923, 18 h.
Series [4] has as its system Candida albicans. Nature of the series: Antifungal activity against Candida albicans MYA2876 by CLSI […] protocol based method. The class given is functional.
Series [5] has as its system Candida albicans. Nature of the series: Antifungal activity against Candida albicans ATCC 64124 by CLSI […] protocol based method. Type of series: functional.
The subject of another series is Cryptococcus neoformans. Nature of the series: Antifungal activity against Cryptococcus neoformans H99 by CLSI […] protocol based method. The class given is functional. Particulars: var grubii H99.
The subject of a further series is Aspergillus flavus. Nature of the series: Antifungal activity against Aspergillus flavus by CLSI […] protocol based method. Type of series: functional.
Series [6] deals with Staphylococcus aureus. Description: Antibacterial activity against Staphylococcus aureus ATCC 43300 after 18 hrs. Type of series: functional. Particulars: ATCC 43300, 18 h.
The next series concerns Fusarium graminearum. Description: Antifungal activity against Fusarium graminearum by CLSI […] protocol based method. Type of series: functional.
Series [7] has as its system HeLa. Nature of the series: Cytotoxicity against human HeLa cells up to 10 ug/ml after 24 hrs by MTT assay. Type of series: cell-based.

The structures appear in SMILES notation. Values after ≈ are worked out from the molar mass of the structure shown. Some results are limits rather than exact numbers.

Broadly, the IC50 is the concentration that gives 50% inhibition. By MIC is commonly meant the smallest concentration in the dilution series that meets the test's criterion for growth inhibition. Read a low MIC as a more susceptible organism. In the series with HeLa [1], `O=C1c2ccccc2C(=O)c2c1nnn2CCCCCCP(=O)([O-])[O-].[K+].[K+]` came in with an IC50 of 73.6 µg/mL. For the same compound, the MIC against Rhodotorula mucilaginosa was 128 µg/mL; against Escherichia coli, over 256 µg/mL; against Staphylococcus aureus [2] it was 64 µg/mL; with Staphylococcus aureus [3], 32 to 64 µg/mL; in the series on Candida albicans [4], 32 to 64 µg/mL; in the series on Candida albicans [5], 32 to 64 µg/mL. Further, the MIC in the series with Cryptococcus neoformans, against Aspergillus flavus, in the series with Staphylococcus aureus [6] and in the series with Fusarium graminearum was 64 µg/mL throughout. Further, the Activity entry in the series with HeLa [7] is “Non-Toxic”.

Take `CCOP(=O)(CCCCCCn1nnc2c1C(=O)c1ccccc1C2=O)OCC`: in the series on HeLa [1], inhibition was half-maximal at 47 µg/mL (≈ 112 µM) (IC50). Moreover, the MIC is 64 to 128 µg/mL (≈ 153 to 305 µM) against Rhodotorula mucilaginosa; over 128 µg/mL against Escherichia coli; 64 µg/mL (≈ 153 µM) against Staphylococcus aureus [2]; 32 to 64 µg/mL (≈ 76.3 to 153 µM) against Staphylococcus aureus [3]; over 128 µg/mL in the series on Candida albicans [4]; over 128 µg/mL against Candida albicans [5]. Moreover, the MIC with Cryptococcus neoformans is 32 µg/mL (≈ 76.3 µM); in the series on Aspergillus flavus it was over 128 µg/mL; in the series with Staphylococcus aureus [6], 32 to 64 µg/mL (≈ 76.3 to 153 µM); in the series on Fusarium graminearum it was 4 µg/mL (≈ 9.54 µM).

Turning to `CCOP(=O)(CCCCCCCCCCn1nnc2c1C(=O)c1ccccc1C2=O)OCC`, the IC50 in the series on HeLa [1] came to 65.7 µg/mL (≈ 138 µM). The MIC in the series with Rhodotorula mucilaginosa is over 128 µg/mL; in the series on Escherichia coli, over 128 µg/mL; against Staphylococcus aureus [2], 64 µg/mL (≈ 135 µM); with Staphylococcus aureus [3] it was over 128 µg/mL; in the series with Candida albicans [4] it was over 128 µg/mL; in the series on Candida albicans [5], over 128 µg/mL. For the same compound, the figures for the MIC against Cryptococcus neoformans, in the series with Staphylococcus aureus [6] and against Fusarium graminearum were over 128 µg/mL, 16 to 64 µg/mL (≈ 33.6 to 135 µM) and 0.5 µg/mL (≈ 1.05 µM), respectively. The Activity entry in the series with HeLa [7] is reported as “Non-Toxic”.

As for `CCCCCCCCS(=O)(=O)OC[C@H]1O[C@H](O[C@@H]2[C@@H](O)[C@H](O[C@H]3O[C@H](CN)[C@@H](O)[C@H](O)[C@H]3O)[C@@H](N)C[C@H]2N)[C@H](O)[C@@H](N)[C@@H]1O`, the MIC in the series with Rhodotorula mucilaginosa is 4 µg/mL (≈ 6.05 µM); in the series with Candida albicans [4], 64 µg/mL (≈ 96.9 µM); against Candida albicans [5], 256 µg/mL (≈ 387 µM); in the series with Cryptococcus neoformans it was 4 µg/mL (≈ 6.05 µM); with Aspergillus flavus it was over 256 µg/mL; in the series on Fusarium graminearum it was 32 µg/mL (≈ 48.4 µM).

`C[C@@H](c1ncncc1F)[C@](O)(Cn1cncn1)c1ccc(F)cc1F` [VORICONAZOLE]: the MIC is 8 µg/mL (≈ 22.9 µM) in the series with Rhodotorula mucilaginosa; 0.125 µg/mL (≈ 0.358 µM) in the series on Candida albicans [4]; over 256 µg/mL against Candida albicans [5]; 0.125 µg/mL (≈ 0.358 µM) against Cryptococcus neoformans; 1 µg/mL (≈ 2.86 µM) against Aspergillus flavus; 32 µg/mL (≈ 91.6 µM) against Fusarium graminearum.

Take `CCOP(=O)(CCCCCCCCn1nnc2c1C(=O)c1ccccc1C2=O)OCC`: the IC50 with HeLa [1] is 52 µg/mL (≈ 116 µM). Moreover, the MIC in the series with Rhodotorula mucilaginosa was over 128 µg/mL; with Escherichia coli, over 128 µg/mL; with Staphylococcus aureus [2], 32 µg/mL (≈ 71.5 µM); in the series with Staphylococcus aureus [3] it was 64 µg/mL (≈ 143 µM); against Candida albicans [4] it was over 128 µg/mL; in the series on Candida albicans [5] it was over 128 µg/mL. Moreover, the minimum inhibitory concentration (MIC) was over 128 µg/mL against Cryptococcus neoformans, over 128 µg/mL against Aspergillus flavus, 16 to 32 µg/mL (≈ 35.8 to 71.5 µM) against Staphylococcus aureus [6] and 1 to 2 µg/mL (≈ 2.23 to 4.47 µM) with Fusarium graminearum. Further, the Activity result in the series on HeLa [7] is recorded as “Non-Toxic”.

Compound `CCOP(=O)(CCn1nnc2c1C(=O)c1ccccc1C2=O)OCC` displayed an IC50 with HeLa [1] of 13.8 µg/mL (≈ 38.1 µM). Also, the MIC in the series on Rhodotorula mucilaginosa is 64 to 128 µg/mL (≈ 176 to 352 µM); in the series with Escherichia coli, over 128 µg/mL; against Staphylococcus aureus [2], 64 µg/mL (≈ 176 µM); against Staphylococcus aureus [3], 64 µg/mL (≈ 176 µM); in the series on Candida albicans [4], over 128 µg/mL; with Candida albicans [5], over 128 µg/mL. Moreover, the MIC against Cryptococcus neoformans was 16 µg/mL (≈ 44 µM); with Aspergillus flavus it was 64 to 128 µg/mL (≈ 176 to 352 µM); in the series on Staphylococcus aureus [6] it was 64 µg/mL (≈ 176 µM); against Fusarium graminearum, 16 µg/mL (≈ 44 µM).

As to `O=C1c2ccccc2C(=O)c2c1nnn2CCP(=O)([O-])[O-].[K+].[K+]`, in the series on HeLa [1], 91.8 µg/mL corresponded to half-maximal inhibition (IC50). Also, the MIC against Rhodotorula mucilaginosa is 128 µg/mL; in the series with Escherichia coli it was over 256 µg/mL; with Staphylococcus aureus [2], 128 µg/mL; with Staphylococcus aureus [3] it was 32 µg/mL; in the series with Candida albicans [4], over 128 µg/mL; against Candida albicans [5], over 128 µg/mL. Further, the MIC in the series with Cryptococcus neoformans is 64 µg/mL; in the series with Aspergillus flavus it was over 128 µg/mL; in the series with Staphylococcus aureus [6], 128 µg/mL; in the series with Fusarium graminearum, 32 µg/mL. In addition, the Activity entry in the series on HeLa [7] was “Non-Toxic”.

In turn, `O=C1c2ccccc2C(=O)c2c1nnn2CCCP(=O)([O-])[O-].[K+].[K+]` had an IC50 in the series on HeLa [1] of 88 µg/mL. In addition, the MIC was 32 µg/mL against Rhodotorula mucilaginosa; over 256 µg/mL in the series with Escherichia coli; 128 µg/mL against Staphylococcus aureus [2]; 32 µg/mL in the series on Staphylococcus aureus [3]; 32 µg/mL against Candida albicans [4]; 32 µg/mL with Candida albicans [5]. Besides, the MIC in the series with Cryptococcus neoformans is 32 µg/mL; with Aspergillus flavus, 16 to 32 µg/mL; in the series with Staphylococcus aureus [6], 64 to 128 µg/mL; against Fusarium graminearum, 32 µg/mL. For the same compound, the Activity result in the series on HeLa [7] is on record as “Non-Toxic”.

In the series on HeLa [1], `O=C1c2ccccc2C(=O)c2c1nnn2CCCCCCCCCCP(=O)([O-])[O-].[K+].[K+]` displayed a half-inhibitory concentration (IC50) of over 100 µg/mL. In addition, the MIC was 64 µg/mL in the series on Rhodotorula mucilaginosa; over 256 µg/mL with Escherichia coli; over 256 µg/mL against Staphylococcus aureus [2]; 32 to 64 µg/mL with Staphylococcus aureus [3]; 128 µg/mL in the series with Candida albicans [4]; 128 µg/mL in the series on Candida albicans [5]. Besides, the MIC against Cryptococcus neoformans is 32 µg/mL; against Staphylococcus aureus [6], over 256 µg/mL; in the series on Fusarium graminearum it was 32 µg/mL. Besides, in the series with HeLa [7], the Activity entry is “Non-Toxic”.

In the case of `CCOP(=O)(CCCn1nnc2c1C(=O)c1ccccc1C2=O)OCC`, the IC50 in the series with HeLa [1] came to 6.97 µg/mL (≈ 18.5 µM). The MIC in the series with Rhodotorula mucilaginosa was 64 to 128 µg/mL (≈ 170 to 339 µM); with Escherichia coli, over 128 µg/mL; with Staphylococcus aureus [2], 64 µg/mL (≈ 170 µM); in the series on Staphylococcus aureus [3], 64 µg/mL (≈ 170 µM); against Candida albicans [4], over 128 µg/mL; against Candida albicans [5] it was over 128 µg/mL. The MIC against Cryptococcus neoformans is 16 µg/mL (≈ 42.4 µM); with Aspergillus flavus it was 64 to 128 µg/mL (≈ 170 to 339 µM); against Staphylococcus aureus [6], 64 to 128 µg/mL (≈ 170 to 339 µM); against Fusarium graminearum, 16 µg/mL (≈ 42.4 µM).

`O=C1c2ccccc2C(=O)c2c1nnn2CCCCCCCCP(=O)([O-])[O-].[K+].[K+]`: in the series with HeLa [1], it took 95.3 µg/mL to reach half-maximal inhibition (IC50). Further, the minimal inhibitory concentration (MIC) in the series on Rhodotorula mucilaginosa was over 128 µg/mL; in the series with Escherichia coli, over 256 µg/mL; with Staphylococcus aureus [2], 256 µg/mL; in the series with Staphylococcus aureus [3], 64 µg/mL; against Candida albicans [4] it was 8 to 16 µg/mL; against Candida albicans [5], 16 to 32 µg/mL. The minimal inhibitory concentration (MIC) was 32 µg/mL in the series with Cryptococcus neoformans, 8 to 16 µg/mL in the series on Aspergillus flavus, over 256 µg/mL against Staphylococcus aureus [6] and 32 µg/mL with Fusarium graminearum. Moreover, the Activity entry in the series with HeLa [7] is given as “Non-Toxic”.

`CCOP(=O)(CCCCn1nnc2c1C(=O)c1ccccc1C2=O)OCC` came in with an IC50 with HeLa [1] of 9.11 µg/mL (≈ 23.3 µM). For the same compound, the MIC against Rhodotorula mucilaginosa was 128 µg/mL (≈ 327 µM); against Escherichia coli it was over 128 µg/mL; against Staphylococcus aureus [2] it was 128 µg/mL (≈ 327 µM); against Staphylococcus aureus [3] it was 128 µg/mL (≈ 327 µM); with Candida albicans [4], over 128 µg/mL; against Candida albicans [5] it was over 128 µg/mL. For the same compound, the MIC in the series on Cryptococcus neoformans is 32 µg/mL (≈ 81.8 µM); in the series with Aspergillus flavus, over 128 µg/mL; in the series with Staphylococcus aureus [6], 64 to 128 µg/mL (≈ 164 to 327 µM); in the series on Fusarium graminearum it was 8 µg/mL (≈ 20.4 µM).
